Patent US4684644A, “Basic monocarboxyamide derivatives of actagardine having antibiotic activity and compositions thereof” (Gruppo Lepetit S.p.A., priority 1985, dated 1987)
Where two headings read alike, the source gives them in different places.

Columns and labels:
S. pyogenes C 203 [1] = test: In vivo test in mice experimentally infected with S. pyogenes C 203; conditions: mice infected i.p. with S. pyogenes C 203; s.c. once a day for three days; survival on 10th day
Protocol: (§1) The antimicrobial activity of the compounds of the invention is also confirmed in in vivo test in mices experimentally infected with S. pyogenes or S. pneumoniae. The experiments are conducted essentially as described by R. Pallanza et al., J. Antimicrob. Chemother. 11, 419 (1983).
(§2) The experimental infection was induced in mice by intraperitoneally administering a suspension of the test pathogens. Inocula had been adjusted so that the untreated animals died of septicemia within 48 h. Animals were treated subcutaneously with the test compound once a day for three days starting about 30 min after infection.
(§3) The ED50 value was calculated on the 10th day by the method of Spearman and Karber (D. J. Finney "Statistical Method in Biological Assay", Griffin, page 524, 1952) on the basis of the percentage of survival at each dose.

S. pneumoniae UC41 = test: In vivo test in mice experimentally infected with S. pneumoniae UC41; conditions: mice infected i.p. with S. pneumoniae UC41; s.c. once a day for three days; survival on 10th day
Protocol: as §1, §2, §3

[2] = Partition coefficient (log P) between n-octanol and water; type: physicochemical
Protocol: ^(3) Partition coefficients (log P) were determined between noctanol
and water. The concentration of the compounds in each phase was determine
spectrophotometrically (UV).
^(6) 0.1 M acetate buffer pH 3.0.
is log P between noctanol and 0.1 M phosphate buffer pH 7.3.

Solubility in water = conditions: for Solubility in water, pH 4.0 / Solubility in water, pH 7.3: approximate values
[3] = Acid-base titration in MCS:H2O (pK of basic functions); type: physicochemical; conditions: MCS:H2O 4:1 (v/v)
Protocol: ^(2) Acid-base titrations were carried out in both aqueous
[methylcellosolve (MCS): water 4:1 (v/v)] and nonaqueous [pyridine or
acetic acid] solvents. The pKMCS values (pK2) of the additional
basic functions were determined in MCS:H2 O 4:1 (v/v) solution by
titration of the compounds with 0.01 N Na OH. The presence of the free
amino group of actagardine (pKMCS 6.3) in the derivatives, except
compound XIII, was confirmed by titration with 0.01 N HCl. Compound XIII
equivalent weights (E W) were obtained by titration with either
hydroxytetrabutylamine (HTBA) in pyridine or perchloric acid (HClO4)
actagardine (pKMCS 6.3) unmodified. Titration in MCS:H2 O 4:1

gram-positive organisms = conditions: in vitro and in vivo; cited from earlier work
S. salivarius L 1323 = test: In vitro antibacterial activity (MIC), S. salivarius L 1323; type: cell-based; conditions: S. salivarius L 1323, clinical isolate; 2% bovine serum
Protocol: (§4) Minimal inhibitory concentration (MIC) are determined by the twofold serial dilution method in Brain heart infusion broth (Difco); it is supplemented with 2% bovine serum when streptococci are tested. The inoculum size is about 10^3 colony units per ml (CFU/ml). The MIC is defined as the lowest concentration which prevents visible growth after overnight incubation at 37° C. The influence of serum is determined on S. aureus Tour by adding 30% bovine serum to the medium. […] The antimicrobial activities of the compounds of the invention in comparison with reference compound (actagardine) are reported in the following Table IV:
(§5) ^(3) Clinical isolates.

S. pneumoniae UC 41 = test: In vitro antibacterial activity (MIC), S. pneumoniae UC 41; type: cell-based; conditions: 2% bovine serum, ~10^3 CFU/ml
Protocol: as §4, with “IV: […]” for “IV:”

S. aureus TOUR = test: In vitro antibacterial activity (MIC), S. aureus TOUR; type: cell-based
Protocol: as §4, with “The inoculum size is about 10^3 colony units per ml (CFU/ml).” left out
^(2) In the presence of 30% bovine serum

S. mitis L 1320 = test: In vitro antibacterial activity (MIC), S. mitis L 1320; type: cell-based; conditions: S. mitis L 1320, clinical isolate; 2% bovine serum
Protocol: as §4, §5

S. faecalis D L 1321 = test: In vitro antibacterial activity (MIC), S. faecalis D L 1321; type: cell-based; conditions: S. faecalis D L 1321, clinical isolate; 2% bovine serum
Protocol: as §4, §5

S. viridans L 1322 = test: In vitro antibacterial activity (MIC), S. viridans L 1322; type: cell-based; conditions: S. viridans L 1322, clinical isolate; 2% bovine serum
Protocol: as §4, §5

S. sanguis H L 1324 = test: In vitro antibacterial activity (MIC), S. sanguis H L 1324; type: cell-based; conditions: S. sanguis H L 1324, clinical isolate; 2% bovine serum
Protocol: as §4, §5

S. pyogenes C 203 [4] = test: Bactericidal activity against growing cells of S. pyogenes C 203; type: cell-based; conditions: 10 times the MIC, Todd-Hewitt broth, 37° C.
Protocol: The antibacterial activity of compound III (a and b) was compared with that of actagardine against growing cells of S. pyogenes C 203. […] For compound III, this level of killing action was obtained also at a dose equal to the MIC (0.4 ug/ml). This comparison was carried out on Todd-Hewitt broth(s) containing compound III and actagardine at concentrations equal to or multiple of the MIC which were inoculated with growing cells of S. pyogenes C 203 (~10^6 CFU/ml). The cultures were incubated at 37° C. with shaking and viable cells were counted at intervals.

S. bovis D L 1325 = test: In vitro antibacterial activity (MIC), S. bovis D L 1325; type: cell-based; conditions: S. bovis D L 1325, clinical isolate; 2% bovine serum
Protocol: as §4, §5

S. pyogenes C 203 [5] = test: In vitro antibacterial activity (MIC), S. pyogenes C 203; type: cell-based; conditions: 2% bovine serum, ~10^3 CFU/ml
Protocol: as §4, with “IV: […]” for “IV:”

[6] = n-octanol/0.1 M acetate buffer pH 3.0
[7] = in the presence of 30% bovine serum

Row | Substance | ED50 (S. pyogenes C 203 [1]) [mg/kg] | Partition Coeff. (log P), CH3(CH2)7OH/H2O, pH 3 [2, 6] | Solubility in water, pH 4.0 (Solubility in water) [mg/ml] | Solubility in water, pH 7.3 (Solubility in water) [mg/ml] | MIC (S. salivarius L 1323) [µg/mL] | MIC (S. pneumoniae UC 41) [µg/mL] | MIC (S. aureus TOUR; [7]) [µg/mL] | MIC (S. aureus TOUR; inoculum 10^3 CFU/ml) [µg/mL] | MIC (S. aureus TOUR; inoculum 10^6 CFU/ml) [µg/mL] | MIC (S. mitis L 1320) [µg/mL] | MIC (S. faecalis D L 1321) [µg/mL] | MIC (S. viridans L 1322) [µg/mL] | MIC (S. sanguis H L 1324) [µg/mL] | MIC (S. bovis D L 1325) [µg/mL] | MIC (S. pyogenes C 203 [5]) [µg/mL] | also measured
1 | actagardine 3,3-dimethylamino-1-propylamide monocarboxamide, hydrochloride [IIIb] | 0.47 | -1.644 | 600 | 200 | – | – | – | – | – | – | – | – | – | – | – | ED50 (S. pneumoniae UC41): 3.5 mg/kg; pk2 (MCS/H2O) ([3]; pKMCS of additional basic function, titration with 0.01 N NaOH): 9.2
2 | actagardine [reference compound] | 0.81 | 0.357 | < 10 | 70 | 3.1 | 25 | 25 | 25 | 50 | 12.5 | 100 | 100 | 100 | 100 | 1.6 | antimicrobial activity (in words) (gram-positive organisms): antimicrobial in vitro and in vivo activity against gram-positive organisms; log P between n-octanol and 0.1 M phosphate buffer pH 7.3 ([2]; n-octanol/0.1 M phosphate buffer pH 7.3): -0.545; solubility in water (in words) (Solubility in water; acid form): not soluble in water; killing effect (S. pyogenes C 203 [4]; 24 h): 99.9%; killing effect (S. pyogenes C 203 [4]; after 5 h of incubation): 99%; pKMCS of the free amino group of actagardine ([3]; titration with 0.01 N HCl): 6.3
3 | N-ethyl actagardine 3,3-dimethylamino-1-propylamide monocarboxamide [Compound XIII] | 0.23 | – | – | – | 0.8 | 12.5 | – | 50 | – | 3.1 | 100 | – | 50 | 25 | 0.8 | –
4 | actagardine N-(2-aminoethyl)-1,2-ethanediamine monocarboxamide [IV] | 0.62 | – | – | – | 0.8 | 12.5 | 12.5 | 50 | 50 | 3.1 | 100 | 25 | 50 | 25 | 0.8 | Partition Coeff. (log P), CH3(CH2)7OH/H2O, pH 3 ([2]; 0.1 m acetate buffer, pH 3): -1.353; Partition Coeff. (log P), CH3(CH2)7OH/H2O, H2O ([2]; distilled water): -0.680; Solubility in water, pH 4.0: 100 mg/ml
